Assay results: ChEMBL document CHEMBL4425166, “Discovery of Pyridinyl Acetamide Derivatives as Potent, Selective, and Orally Bioavailable Porcupine Inhibitors” (ACS Med Chem Lett, 2016)
Values after ≈ are worked out from the molar mass of the structure shown. Blank lines part the entries; values can stand above or below the molecule they belong to. Active and inactive are the calls of the source. The calls are words filed in the database; no cut-off is given here.

Tests used:
[1] = Aqueous solubility of compound in buffer of pH 6.8 after 24 hrs by UV-based high throughput assay; assay type: physicochemical
[2] = target: T1, Protein-serine O-palmitoleoyltransferase porcupine (Mus musculus, UniProt Q9JJJ7); assay: Inhibition of PORCN in […] overexpressing Wnt3A co-cultured with TM3 cells transfected with Wnt-luciferase gene after 24 hrs by luminescence assay; assay type: cell-based
T1 sequence (Q9JJJ7 whole entry): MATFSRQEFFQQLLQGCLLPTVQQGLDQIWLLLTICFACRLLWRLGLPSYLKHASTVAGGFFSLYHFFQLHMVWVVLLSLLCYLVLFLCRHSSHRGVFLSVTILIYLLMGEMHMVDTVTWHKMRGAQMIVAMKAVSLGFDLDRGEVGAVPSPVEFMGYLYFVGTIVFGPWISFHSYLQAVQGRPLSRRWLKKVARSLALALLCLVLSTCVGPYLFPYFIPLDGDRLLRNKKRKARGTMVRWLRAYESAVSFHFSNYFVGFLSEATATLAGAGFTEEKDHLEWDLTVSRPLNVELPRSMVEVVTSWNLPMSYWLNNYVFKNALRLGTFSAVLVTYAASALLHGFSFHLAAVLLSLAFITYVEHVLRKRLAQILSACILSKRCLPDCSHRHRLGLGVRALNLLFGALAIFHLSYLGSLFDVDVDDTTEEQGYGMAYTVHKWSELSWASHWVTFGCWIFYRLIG

[3] = target: T2, Protein-serine O-palmitoleoyltransferase porcupine (Homo sapiens, UniProt Q9H237); assay: Displacement of [3H]-GNF-1331 from human PORCN after 3 hrs by scintillation counting analysis
T2 sequence (Q9H237 whole entry): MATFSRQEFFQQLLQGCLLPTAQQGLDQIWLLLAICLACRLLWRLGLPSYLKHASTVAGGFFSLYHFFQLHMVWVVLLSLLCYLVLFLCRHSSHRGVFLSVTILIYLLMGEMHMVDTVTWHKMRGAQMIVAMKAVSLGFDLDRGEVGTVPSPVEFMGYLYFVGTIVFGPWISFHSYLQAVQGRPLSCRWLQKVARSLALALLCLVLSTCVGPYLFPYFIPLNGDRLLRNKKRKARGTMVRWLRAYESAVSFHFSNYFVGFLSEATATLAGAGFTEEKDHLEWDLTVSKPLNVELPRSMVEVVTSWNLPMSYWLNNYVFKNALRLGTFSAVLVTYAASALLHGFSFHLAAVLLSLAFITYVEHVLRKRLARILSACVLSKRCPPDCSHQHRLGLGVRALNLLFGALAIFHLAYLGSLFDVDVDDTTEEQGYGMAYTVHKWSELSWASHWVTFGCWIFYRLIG

[4] = Dose normalized Cmax in Balb/c mouse at 5 mg/kg via oral gavage after 24 hrs by LC/MS/MS analysis; assay type: ADME, organism-based; details: in vivo
[5] = Dose normalized AUC in Balb/c mouse at 5 mg/kg via oral gavage after 24 hrs by LC/MS/MS analysis; assay type: ADME, organism-based; details: in vivo
[6] = system: Cytochrome P450; assay: Inhibition of CYP450 (unknown origin) up to 10 uM; assay type: ADME, protein assay; details: human
[7] = Clearance in Balb/c mouse at 2 mg/kg, iv after 24 hrs by LC/MS/MS analysis; assay type: ADME, organism-based; details: in vivo
[8] = Clearance in rat by LC/MS/MS analysis; assay type: ADME; details: in vivo
[9] = Clearance in dog by LC/MS/MS analysis; assay type: ADME, Canis lupus familiaris; details: in vivo
[10] = Volume of distribution at steady state in Balb/c mouse at 2 mg/kg, iv after 24 hrs by LC/MS/MS analysis; assay type: ADME, organism-based; details: in vivo, read-out: Vdss
[11] = Volume of distribution at steady state in rat by LC/MS/MS analysis; assay type: ADME; details: in vivo, read-out: Vdss
[12] = Volume of distribution at steady state in dog by LC/MS/MS analysis; assay type: ADME, Canis lupus familiaris; details: in vivo, read-out: Vdss
[13] = Terminal half life in Balb/c mouse at 2 mg/kg, iv or 5 mg/kg via oral gavage by LC/MS/MS analysis; assay type: ADME, organism-based; details: in vivo, read-out: beta t1/2 (converted)
[14] = Terminal half life in rat by LC/MS/MS analysis; assay type: ADME; details: in vivo, read-out: beta t1/2 (converted)
[15] = Terminal half life in dog by LC/MS/MS analysis; assay type: ADME, Canis lupus familiaris; details: in vivo, read-out: beta t1/2 (converted)
[16] = Oral bioavailability in Balb/c mouse at 5 mg/kg via gavage by LC/MS/MS analysis; assay type: ADME, organism-based; details: in vivo
[17] = Oral bioavailability in rat by LC/MS/MS analysis; assay type: ADME, organism-based; details: in vivo
[18] = Oral bioavailability in dog by LC/MS/MS analysis; assay type: ADME, organism-based, Canis lupus familiaris; details: in vivo
[19] = target: Cytochrome P450 2C9 (Homo sapiens, UniProt P11712); assay: Inhibition of CYP2C9 (unknown origin); assay type: ADME
Chain of Cytochrome P450 2C9 (P11712 whole entry): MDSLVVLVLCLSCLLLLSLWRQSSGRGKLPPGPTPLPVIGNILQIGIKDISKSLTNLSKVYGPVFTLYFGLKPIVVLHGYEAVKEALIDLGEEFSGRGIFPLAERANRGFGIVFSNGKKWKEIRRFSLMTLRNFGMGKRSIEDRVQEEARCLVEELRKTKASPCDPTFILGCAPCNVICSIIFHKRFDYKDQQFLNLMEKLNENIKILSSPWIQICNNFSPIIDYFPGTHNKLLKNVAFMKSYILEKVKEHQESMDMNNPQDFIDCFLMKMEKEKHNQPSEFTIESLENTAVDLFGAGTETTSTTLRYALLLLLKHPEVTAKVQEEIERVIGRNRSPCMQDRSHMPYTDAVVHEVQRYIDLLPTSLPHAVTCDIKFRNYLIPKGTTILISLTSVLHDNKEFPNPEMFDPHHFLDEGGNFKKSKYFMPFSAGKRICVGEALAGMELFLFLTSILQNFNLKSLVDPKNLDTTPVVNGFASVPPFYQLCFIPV

[20] = target: Cytochrome P450 2D6 (Homo sapiens, UniProt P10635); assay: Inhibition of CYP2D6 (unknown origin); assay type: ADME
Chain of Cytochrome P450 2D6 (P10635 whole entry): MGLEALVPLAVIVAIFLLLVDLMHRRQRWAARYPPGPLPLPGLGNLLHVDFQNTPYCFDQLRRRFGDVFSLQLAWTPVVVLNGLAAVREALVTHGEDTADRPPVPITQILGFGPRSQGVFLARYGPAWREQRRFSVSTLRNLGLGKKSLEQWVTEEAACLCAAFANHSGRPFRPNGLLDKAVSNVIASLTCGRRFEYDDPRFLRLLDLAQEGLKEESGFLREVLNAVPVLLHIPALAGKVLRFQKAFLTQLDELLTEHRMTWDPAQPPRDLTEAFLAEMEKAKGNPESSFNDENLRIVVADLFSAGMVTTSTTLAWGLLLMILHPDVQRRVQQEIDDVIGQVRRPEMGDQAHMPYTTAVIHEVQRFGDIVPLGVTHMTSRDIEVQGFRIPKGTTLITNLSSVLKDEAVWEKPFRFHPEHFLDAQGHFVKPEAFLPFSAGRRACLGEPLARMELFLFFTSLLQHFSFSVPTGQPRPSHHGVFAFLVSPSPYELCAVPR

[21] = target: Cytochrome P450 3A4 (Homo sapiens, UniProt P08684); assay: Inhibition of CYP3A4 (unknown origin); assay type: ADME
Chain of Cytochrome P450 3A4 (P08684 whole entry): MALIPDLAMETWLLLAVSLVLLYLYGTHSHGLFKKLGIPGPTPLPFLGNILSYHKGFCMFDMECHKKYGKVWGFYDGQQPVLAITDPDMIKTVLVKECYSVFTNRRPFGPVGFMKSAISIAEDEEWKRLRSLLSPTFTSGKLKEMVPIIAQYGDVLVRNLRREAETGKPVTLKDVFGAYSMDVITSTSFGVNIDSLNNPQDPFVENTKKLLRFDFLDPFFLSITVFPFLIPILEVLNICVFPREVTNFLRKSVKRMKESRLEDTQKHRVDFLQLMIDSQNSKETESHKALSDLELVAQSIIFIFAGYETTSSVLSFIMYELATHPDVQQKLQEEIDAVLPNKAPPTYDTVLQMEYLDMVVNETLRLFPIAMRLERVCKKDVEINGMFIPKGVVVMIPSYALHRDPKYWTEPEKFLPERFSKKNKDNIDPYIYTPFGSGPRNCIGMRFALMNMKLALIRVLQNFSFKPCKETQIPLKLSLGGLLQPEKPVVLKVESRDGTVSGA

[22] = Protein binding in mouse plasma by rapid equilibrium dialysis; assay type: ADME, cell-free; details: read-out: PPB (converted)
[23] = Protein binding in rat plasma by rapid equilibrium dialysis; assay type: ADME, cell-free; details: read-out: PPB (converted)
[24] = Protein binding in dog plasma by rapid equilibrium dialysis; assay type: ADME, cell-free, Canis lupus familiaris; details: read-out: PPB
[25] = Protein binding in monkey plasma by rapid equilibrium dialysis; assay type: ADME, cell-free, Macaca mulatta; details: rhesus monkey, read-out: PPB (converted)
[26] = Protein binding in human plasma by rapid equilibrium dialysis; assay type: ADME, cell-free; details: read-out: PPB (converted)
[27] = Apparent permeability across apical to basolateral side of human Caco2 cells; assay type: ADME, cell-based; details: Caco-2
[28] = Efflux ratio of permeability in human Caco2 cells; assay type: ADME, cell-based; details: Caco-2
[29] = system: Mus musculus; assay: Inhibition of Axin2 mRNA level in nude mouse MMTV-Wnt1 model at 3 mg/kg administered as oral gavage measured at 5 hrs by RT-PCR analysis; assay type: functional
[30] = system: Mus musculus; assay: Inhibition of Axin2 mRNA level in nude mouse MMTV-Wnt1 model at 3 mg/kg administered as oral gavage measured after 24 hrs by RT-PCR analysis; assay type: functional, organism-based
[31] = system: Mus musculus; assay: Antitumor activity in nude mouse MMTV-Wnt1 model assessed as tumor growth inhibition at 0.3 mg/kg, po qd administered for 2 weeks relative to control; assay type: functional
[32] = system: Mus musculus; assay: Antitumor activity in nude mouse MMTV-Wnt1 model assessed as tumor growth inhibition at 1 mg/kg, po qd administered for 2 weeks relative to control; assay type: functional
[33] = system: Mus musculus; assay: Antitumor activity in nude mouse MMTV-Wnt1 model assessed as tumor growth inhibition at 3 mg/kg, po qd administered for 2 weeks relative to control; assay type: functional
[34] = Toxicity in nude mouse MMTV-Wnt1 model assessed as body weight loss at 0.3 to 3 mg/kg, po qd administered for 2 weeks measured during compound dosing; assay type: organism-based; details: in vivo, 336 h

Compound: Cc1cc(CC(=O)Nc2ccc(-c3cnccn3)cn2)cnc1-c1ccnc(F)c1
solubility at 24 h [1]: 105 µM (≈ 42 µg/mL)

Compound: CC(=O)N1CCN(c2ccc(NC(=O)Cc3cnc(-c4ccnc(C)c4)c(C)c3)nc2)CC1
IC50 [2]: 0.7 nM
solubility at 24 h [1]: > 175 µM

Compound: Cc1cc(-c2ccc(NC(=O)Nc3ccc(-c4ccccc4)cc3)cc2)ccn1
IC50 [2]: > 10000 nM

Compound: Cc1cc(-c2ccc(OC(=O)Nc3ccc(-c4ccccc4)cc3)cc2)ccn1
IC50 [2]: > 10000 nM

Compound: Cc1cc(-c2ccc(CC(=O)Nc3ccc(-c4cnccn4)cn3)cn2)ccn1
solubility at 24 h [1]: 16 µM (≈ 6.12 µg/mL)

Compound: Cc1cc(-c2ccc(CC(=O)Nc3ccc(-c4ccccn4)cn3)cn2)ccn1
solubility at 24 h [1]: 17 µM (≈ 6.48 µg/mL)

Compound: Cc1cc(CC(=O)Nc2ccc(-c3cnccn3)cn2)cnc1-c1ccnc(CO)c1
IC50 [2]: 26 nM

Compound: CC(=O)N1CCN(c2ccc(NC(=O)Cc3cnc(-c4ccnc(F)c4)c(C)c3)nc2)CC1
IC50 [2]: 0.8 nM
solubility at 24 h [1]: 350 µM (≈ 157 µg/mL)
clearance [7]: 5.33 mL/min/kg
clearance [8]: 5.35 mL/min/kg
clearance [9]: 0.67 mL/min/kg
Vd [10]: 0.57 L/kg
Vd [11]: 0.7 L/kg
Vd [12]: 0.25 L/kg
half-life [13]: 2.44 h
half-life [14]: 2.77 h
half-life [15]: 8.86 h
bioavailability [16]: 96%
bioavailability [17]: 84%
bioavailability [18]: 72%
IC50 [19]: > 10000 nM
IC50 [20]: > 10000 nM
IC50 [21]: > 10000 nM
fraction unbound [22]: 0.12
fraction unbound [23]: 0.169
fraction unbound [24]: 0.091
fraction unbound [25]: 0.288
fraction unbound [26]: 0.05
Papp A→B [27]: 7.5 ×10⁻⁶ cm/s
efflux ratio [28]: 3.2
inhibition in vivo at 3 mg/kg [29]: 90%
inhibition [30]: inactive
T/C [31]: 15%
T/C [32]: -74%
T/C [33]: -84%
Activity [34]: Non-Toxic

Compound: Cc1cc(CC(=O)Nc2ccc(N3CCNCC3)cn2)cnc1-c1ccnc(F)c1
IC50 [2]: 24 nM

Compound: COC(=O)N1CCN(c2ccc(NC(=O)Cc3cnc(-c4ccnc(C)c4)c(C)c3)nc2)CC1
solubility at 24 h [1]: > 175 µM

Compound: Cc1cc(-c2ncc(CC(=O)Nc3ccc(-c4ccccn4)cn3)cc2C)ccn1
IC50 [2]: 0.4 nM
solubility at 24 h [1]: 32 µM (≈ 12.7 µg/mL)

Compound: Cc1cc(-c2ccc(CC(=O)Nc3ccc(-c4ccccc4)cn3)cn2)ccn1
IC50 [2]: 0.2 nM
solubility at 24 h [1]: 6 µM (≈ 2.28 µg/mL)

Compound: Cc1cc(-c2ncc(CC(=O)Nc3ccc(-c4cnccn4)cn3)cc2C)ccn1 [WNT-974]
IC50 [2]: 0.4 nM
solubility at 24 h [1]: 210 µM (≈ 83.3 µg/mL)

Other lines, results leading:

IC50 [2]: 12 nM
IC50 [3]: 8 nM
Cmax/dose [4]: 14 nM
AUC/dose [5]: 0.03 µM·h
Compound: CCCn1c(SCC(=O)Nc2nc3ccc(OC)cc3s2)nnc1-c1ccncc1

IC50 [2]: 5.5 nM
Compound: O=C(Cc1ccc(-c2ccncc2)cc1)Nc1nc(-c2ccccc2)cs1

IC50 [2]: 0.7 nM
solubility at 24 h [1]: < 2 µM
Compound: Cc1cc(-c2ccc(CC(=O)Nc3ccc(-c4ccccc4)cn3)cc2)ccn1

inhibition (INH) [6]: Not Active
Compound: COc1ccc2nc(NC(=O)Cc3ccc(-c4ccnc(C)c4)cc3)sc2c1

IC50 [2]: 380 nM
Compound: COc1ccc2nc(C(=O)NCc3ccc(-c4ccncc4)cc3)sc2c1

Cmax/dose [4]: 4100 nM
AUC/dose [5]: 26 µM·h
clearance [7]: 2.49 mL/min/kg
IC50 [21]: 800 nM
Compound: COc1ccc2nc(NC(=O)Cc3ccc(-c4ccncc4)cc3)sc2c1
